Experimental data: PubChem BioAssay AID1645865 (Buhrlage Lab, Dana-Farber Cancer Institute and Novartis …, 2021)
pIC50: −log10 of the molar value. Calls of active or inactive are those of the source.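 How the source made its calls: active means maximal inhibition of the USP30 enzyme reaching 30% or more across the dose series; inactive means the rest.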

Biological target: Ubiquitin carboxyl-terminal hydrolase 30 (Homo sapiens) (UniProt Q70CQ3)
Experiment: ubiquitin-specific protease 30 DUB inhibitors, concentration-effect, biochemical, validation of primary actives (AID 1645865)
Conditions: purified USP30, Ub-rhodamine cleavage, fluorescence, 2 h

Ubiquitin carboxyl-terminal hydrolase 30 (Homo sapiens), sequence (Q70CQ3 whole entry, looked up): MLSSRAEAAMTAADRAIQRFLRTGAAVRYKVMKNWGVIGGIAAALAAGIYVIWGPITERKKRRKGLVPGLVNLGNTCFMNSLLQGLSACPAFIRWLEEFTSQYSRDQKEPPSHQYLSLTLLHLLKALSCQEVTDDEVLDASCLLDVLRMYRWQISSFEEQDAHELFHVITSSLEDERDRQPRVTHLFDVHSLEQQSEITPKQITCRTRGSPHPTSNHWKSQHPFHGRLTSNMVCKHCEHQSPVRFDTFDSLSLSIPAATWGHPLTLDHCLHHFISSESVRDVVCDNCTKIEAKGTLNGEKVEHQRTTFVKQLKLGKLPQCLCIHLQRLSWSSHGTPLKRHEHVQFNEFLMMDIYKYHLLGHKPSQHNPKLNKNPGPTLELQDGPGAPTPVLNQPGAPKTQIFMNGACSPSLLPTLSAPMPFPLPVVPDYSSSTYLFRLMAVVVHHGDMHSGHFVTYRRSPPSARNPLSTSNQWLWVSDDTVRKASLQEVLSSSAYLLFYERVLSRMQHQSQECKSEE

Row | SMILES | pIC50 | IC50
1 | Cc1cccc(-c2nc3n(CC(=O)Nc4ccc(Cl)cc4)c(C)cc(=O)n3n2)c1 | 6.75 | 
2 | CC(=O)N1CCOc2cc(S(=O)(=O)N3CCCC3c3cc(C)no3)ccc21 (stereo not drawn) |  | > 50 µM (inactive)
3 | Cc1ccc2nc(CNC(=O)c3ccccc3-c3nc(-c4ccc(F)cc4)no3)[nH]c2c1 | 4.47 | 
4 | COc1ccc(NC2c3ccccc3C(=O)N2c2ccccn2)cc1 (stereo not drawn) |  | > 50 µM (inactive)
5 | Cc1cc(NC(=O)Cn2c(=O)n(CCCCC(=O)NCc3ccco3)c(=O)c3ccccc32)ccc1Br | 5.68 | 
6 | CCn1cnc2ccc(C(=O)NC3CC3)cc2c1=O |  | > 50 µM (inactive)
7 | COc1ccc(NC(=O)C2Oc3ccc(C)cc3NC2=O)cc1Cl (stereo not drawn) | 4.71 | 
8 | COc1ccc(CCNC(=O)c2cn(-c3ccc(F)cc3)nn2)cc1OC | 5.17 | 
9 | CSc1ccccc1C(=O)Nc1nc(-c2ccncc2)cs1 | 4.63 | 
10 | O=C(Nc1ccc2c(c1)OCO2)c1[nH]nc2c1CCc1ccccc1-2 |  | > 50 µM (inactive)
11 | O=S(=O)(c1ccccc1)N1CCN2Cc3ccccc3N(Cc3ccccc3)CC2C1 (stereo not drawn) |  | > 50 µM (inactive)
12 | CNC(=O)c1c2n(c3ncccc13)CCN(S(=O)(=O)c1ccc(-c3ccccc3)cc1)C2 | 5.40 | 
13 | Cc1ccc(NCc2cc3c(C(C)(C)C)nn(-c4ccc(Cl)cc4)c3[nH]c2=O)cc1 |  | > 50 µM (inactive)
14 | CC(=O)NCc1nc(-c2ccc3c(c2)nc(C)c(=O)n3C2CCCC2)no1 |  | > 50 µM (inactive)
15 | CC(C)c1cc2c(c(O)c1O)[C@@]13CCCC(C)(C)[C@@H]1C[C@@H]2OC3=O | 4.57 | 
16 | COc1ccc2ncc3c(-c4ccc(C)cc4)nn(-c4ccc(F)cc4)c3c2c1 | 5.74 | 
17 | CC1OC2CC(O)C1(O)C1=C2C(O)=C(C(N)=O)C(=N)C1=O (stereo not drawn) |  | > 50 µM (inactive)
18 | O=[N+]([O-])c1ccccc1C(c1c[nH]c2ccccc12)c1c[nH]c2ccccc12 |  | > 50 µM (inactive)
19 | CCOC(=O)c1c(C)oc2nc(CSc3ccccc3)[nH]c(=O)c12 |  | > 50 µM (inactive)
20 | Cc1nnc(NC(=O)C2CCN(c3ccc(S(N)(=O)=O)cc3[N+](=O)[O-])CC2)o1 | 4.39 | 
21 | O=C(NCc1ccc(F)cc1)C1CCN(c2cnc(N3CCCCC3)nc2)CC1 |  | > 50 µM (inactive)
22 | Cc1ccc2[nH]c(=O)c(CN(CC3CCCO3)S(=O)(=O)c3ccccc3)cc2c1 (stereo not drawn) | 4.40 | 
23 | C=C[C@]1(C)C=C2C(=O)[C@]3(O)OC(=O)[C@@]4(CCCC(C)(C)[C@H]34)[C@@]2(O)CC1 | 4.56 | 
24 | COC1C(O)=C2C(=O)O/C(C)=C/C=C/C=C/C=C/CC(c3ccccc3)NC(=O)/C=C/C=C/C=C\C=C\C2(C)C1O (stereo not drawn) |  | > 50 µM (inactive)

Row | SMILES | pIC50 | IC50
25 | CC1Oc2cc3c(-c4c(O)cc(O)c5c(O)c6c(cc45)OC(C)C(C)C6=O)c(O)cc(O)c3c(O)c2C(=O)C1C (stereo not drawn) | 5.30 | 
26 | CCOC(=O)c1cccc(NC(=O)Nc2cccn3nc(C)nc23)c1 |  | > 50 µM (inactive)
27 | Cc1ccccc1C(=O)OCCN1C(=O)c2cccc3c(N4CCOCC4)ccc(c23)C1=O |  | > 50 µM (inactive)
28 | O=C(CSc1ccc2nnc(-c3ccccc3)n2n1)N1CCCc2ccccc21 | 4.97 | 
29 | Cc1c(CC(=O)Nc2nn[nH]n2)c(=O)oc2cc3c(cc12)CCC1(CCCCC1)O3 |  | > 50 µM (inactive)
30 | CC(=O)c1cccc(NC(=O)c2ccc(-c3csc(C)n3)cc2)c1 |  | > 50 µM (inactive)
31 | Cc1c(-c2nsc(NC(=O)c3ccc(Cl)cc3)n2)nnn1-c1ccccc1F | 6.31 | 
32 | Cc1ccc(CNC(=O)CCCn2c(=O)c3sccc3n(CC(=O)Nc3cc(Cl)ccc3C)c2=O)cc1 | 5.67 | 
33 | Cc1ccc(Nc2nc(Nc3cccc(F)c3)nc3nccnc23)c(C)c1 |  | > 50 µM (inactive)
34 | O=C(CSc1nnnn1-c1ccccc1)Nc1ccccc1 | 4.50 | 
35 | CNC(=O)C1CN(C(=O)c2ccc(OC)cc2)CC12CCCC2 (stereo not drawn) |  | > 50 µM (inactive)
36 | CCOc1ccc(-c2nc(C#N)c(N3CCN(C(=O)c4ccccc4C)CC3)o2)cc1 | 5.58 | 
37 | CC(=O)N1CCc2cc(S(=O)(=O)NCCC(=O)Nc3cccc(C)c3C)ccc21 | 4.41 | 
38 | CC1=CN2C(=N)/C(=C/c3cn(Cc4ccc(Cl)cc4)c4ccccc34)C(=O)N=C2S1 |  | > 50 µM (inactive)
39 | CCc1nc(-c2cc(C(=O)N3CCOCC3)c3ccccn23)cs1 |  | > 50 µM (inactive)
40 | O=C(CN1CCCc2ccccc21)Nc1ccc(N2CCOCC2)cc1 |  | > 50 µM (inactive)
41 | COc1ccccc1NC(=O)CNC(=O)c1nn(-c2ccc(OC)c(OC)c2)c(=O)c2ccccc12 | 4.45 | 
42 | COc1cc(-c2ccno2)ccc1S(=O)(=O)Nc1ccccc1Cl |  | > 50 µM (inactive)
43 | Cc1cccc(-n2ccnc(SCC(=O)Nc3ccc(Cl)cc3F)c2=O)c1 | 5.62 | 
44 | CN1C(=O)c2cc(NC(=O)c3ccccc3Cl)ccc2Oc2ccccc21 |  | > 50 µM (inactive)
45 | O=C(O)C1CCN(Cc2c(-c3ccco3)nc3ccc(Cl)cn23)CC1 |  | > 50 µM (inactive)
46 | CNC(=O)c1cc2nc(N(C)C)n(-c3ccc(F)cc3)c2s1 |  | > 50 µM (inactive)
47 | Cc1ccccc1-c1nnc(-c2ccc(C(=O)NCc3ccccc3F)cc2)o1 | 5.48 | 
48 | O=C(Cn1ccc2ccc(N3CCOCC3)nc21)NCc1ccccc1F |  | > 50 µM (inactive)
